Data as given in the NIST ThermoML archive (doi:10.1007/s10765-007-0223-x).
Values joined by “and” are separate entries in the source; they are usually repeats but may differ in a detail not shown here. Equal entries are not always repeated.

Legend:
[1] = 101 kPa, Liquid; for speed of sound: Single path-length method
[2] = xn = mol fraction of the nth substance listed; conditions: 101 kPa, Liquid; for speed of sound: Single path-length method

CC(C)CC(C)(C)C [2,2,4-trimethylpentane]
[1]
Conditions | mass density [kg/m3] | speed of sound [m/s]
288.15 K | 695.948 | 1124.3
290.65 K | 693.91 | 1113.8
293.15 K | 691.861 | 1103.3
295.65 K | 689.809 | 1092.7
298.15 K | 687.749 | 1082.2
300.65 K | 685.687 | 1071.7
303.15 K | 683.618 | 1061.3
305.65 K | 681.542 | 1050.9
308.15 K | 679.459 | 1040.5
310.65 K | 677.373 | 1030.2
313.15 K | 675.278 | 1019.9
315.65 K | 673.177 | 1009.7
318.15 K | 671.069 | 999.53
320.65 K | 668.954 | 989.37
323.15 K | 666.832 | 979.25

CC(C)CC(C)(C)C [2,2,4-trimethylpentane] + COC(C)(C)C
[2], x2 = 0
Conditions | mass density [kg/m3] | speed of sound [m/s]
288.15 K | 695.948 | 1124.3
290.65 K | 693.91 | 1113.8
293.15 K | 691.861 | 1103.3
295.65 K | 689.809 | 1092.7
298.15 K | 687.749 | 1082.2
300.65 K | 685.687 | 1071.7
303.15 K | 683.618 | 1061.3
305.65 K | 681.542 | 1050.9
308.15 K | 679.459 | 1040.5
310.65 K | 677.373 | 1030.2
313.15 K | 675.278 | 1019.9
315.65 K | 673.177 | 1009.7
318.15 K | 671.069 | 999.53
320.65 K | 668.954 | 989.37
323.15 K | 666.832 | 979.25

COC(C)(C)C [2-methoxy-2-methylpropane]
[1]
Conditions | mass density | speed of sound
288.15 K | 744.861 kg/m3 | 1083.4 m/s and 1082.1 m/s
290.65 K | 742.259 kg/m3 | 1071.6 m/s and 1070.6 m/s
293.15 K | 739.654 kg/m3 | 1060 m/s and 1059.1 m/s
295.65 K | 737.036 kg/m3 | 1048.5 m/s and 1047.8 m/s
298.15 K | 734.406 kg/m3 | 1036.9 m/s and 1036.6 m/s
300.65 K | 731.766 kg/m3 | 1025.4 m/s
301.65 K | 732.643 kg/m3 | 1024.3 m/s
303.15 K | 729.112 kg/m3 and 729.99 kg/m3 | 1013.9 m/s and 1014 m/s and 1012.8 m/s
305.65 K | 727.325 kg/m3 and 726.444 kg/m3 | 1002.4 m/s and 1002.7 m/s and 1001.4 m/s
308.15 K | 723.763 kg/m3 and 724.645 kg/m3 | 990.99 m/s and 991.34 m/s and 989.9 m/s
310.65 K | 721.069 kg/m3 and 721.953 kg/m3 | 979.62 m/s and 980 m/s and 978.47 m/s
313.15 K | 718.357 kg/m3 and 719.245 kg/m3 | 968.16 m/s and 968.63 m/s and 967.03 m/s
315.65 K | 715.636 kg/m3 and 716.525 kg/m3 | 956.8 m/s and 957.31 m/s and 955.73 m/s
318.15 K | 712.897 kg/m3 and 713.786 kg/m3 | 945.54 m/s and 946.03 m/s and 944.34 m/s
320.65 K | 710.141 kg/m3 and 711.028 kg/m3 | 934.24 m/s and 934.76 m/s and 933.01 m/s
323.15 K | 707.381 kg/m3 and 708.28 kg/m3 | 922.97 m/s and 923.46 m/s and 921.93 m/s

COC(C)(C)C [2-methoxy-2-methylpropane] + CCc1ccccc1
[2], x1 = 1
Conditions | mass density [kg/m3] | speed of sound [m/s]
288.15 K | 744.861 | 1083.4
290.65 K | 742.259 | 1071.6
293.15 K | 739.654 | 1060
295.65 K | 737.036 | 1048.5
298.15 K | 734.406 | 1036.9
300.65 K | 731.766 | 1025.4
303.15 K | 729.112 | 1013.9
305.65 K | 726.444 | 1002.4
308.15 K | 723.763 | 990.99
310.65 K | 721.069 | 979.62
313.15 K | 718.357 | 968.16
315.65 K | 715.636 | 956.8
318.15 K | 712.897 | 945.54
320.65 K | 710.141 | 934.24
323.15 K | 707.381 | 922.97

CC(C)(C)O [2-methylpropan-2-ol]
[1]
Conditions | mass density [kg/m3] | speed of sound [m/s]
301.65 K | 777.762 | 1109
303.15 K | 775.212 | 1099
305.65 K | 772.623 | 1088.3
308.15 K | 770.015 | 1077.7
310.65 K | 767.391 | 1067.2
313.15 K | 764.739 | 1056.7
315.65 K | 762.054 | 1046.1
318.15 K | 759.355 | 1035.7
320.65 K | 756.633 | 1025.2
323.15 K | 753.891 | 1014.8

CC(C)(C)O [2-methylpropan-2-ol] + COC(C)(C)C
[2], x2 = 0
Conditions | mass density [kg/m3] | speed of sound [m/s]
301.65 K | 777.762 | 1109
303.15 K | 775.212 | 1099
305.65 K | 772.623 | 1088.3
308.15 K | 770.015 | 1077.7
310.65 K | 767.391 | 1067.2
313.15 K | 764.739 | 1056.7
315.65 K | 762.054 | 1046.1
318.15 K | 759.355 | 1035.7
320.65 K | 756.633 | 1025.2
323.15 K | 753.891 | 1014.8
